Source: patent US12325696B2, “Indazole derivative, preparation method therefor, and pharmaceutical application thereof” (JIANGSU HENGRUI MEDICINE CO., LTD., priority 2019, dated 2025)

How the values were obtained:
[1] = tested on: MCF7 cell; test: Inhibition of proliferation of MCF7 cell (CellTiter-Glo, 144 hours); assay type: cell-based; details: Homo sapiens; for IC50: MCF7, CellTiter-Glo, read-out: IC50 of the inhibitory effect on the proliferation of MCF7 cell; for Emax: MCF7 cell proliferation, read-out: Maximum inhibition
In short: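 Seeded overnight, MCF7 cells were treated in MEM with 2% FBS with nine 4-fold dilutions from 100 nM (0.5% DMSO blank). Incubation 144 h at 37° C, 5% CO2. CellTiter-Glo luminescence read; IC50 from signal versus log concentration.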

[2] = tested on: MCF7 ERαY537S; test: Inhibition of proliferation of MCF7 cell expressing ERα Y537S mutant; assay type: cell-based; details: Homo sapiens, 144 hours; for Emax: read-out: Maximum inhibition
In short: (§1)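 MCF7 cells stably expressing lentiviral ERα Y537S or D538G mutants, seeded 3,000 cells/well, then exposed in 2% FBS MEM to nine 4-fold dilutions from 100 nM for 144 h at 37° C. Viability read by CellTiter-Glo luminescence; IC50 fitted from concentration-response.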

[3] = molecular target: estrogen receptor ERα Y537S mutant-type (Homo sapiens (Human), UniProt P03372, Y537S); test: Covalent modification of ERα Y537S mutant-type LBD by high-resolution mass spectrometry; assay type: binding; details: after 24 hours; 2 μM protein, 10 μM compound, 4° C.
Procedure: The ligand binding domain (LBD, aa296-554) of estrogen receptor ERα wild-type and ERα Y537S mutant-type was expressed in E. coli and purified. 2 μM ERα wild-type or ERα Y537S mutant-type protein and 10 μM compound were added to a buffer solution containing 50 mM Tris-HCl, pH7.5, 150 mM NaCl, 1 mM TCEP and 5% glycerol and mixed well. The solution was incubated at 4° C. for 24 hours, followed by high-resolution mass spectrometry (Agilent Technologies, Agilent Q-tof 6530) assay. Alternatively, 1 μM ERα wild-type or ERα Y537S mutant-type protein and 3 μM compound were added to a buffer solution containing 50 mM Tris-HCl, pH7.5, 150 mM NaCl, 1 mM TCEP and 5% glycerol and mixed well. The solution was incubated at 37° C. for 15 minutes, followed by high-resolution mass spectrometry assay. In the mass spectrometry assay results, the peak whose molecular weight is the sum of the molecular weight of the protein and compound is the product of covalent modification. The percentage of covalent modification is obtained by calculating the ratio of […] to total protein.

[4] = tested on: MCF7 D538G; test: Inhibition of proliferation of MCF7 cell expressing ERα D538G mutant; assay type: cell-based; details: Homo sapiens, 144 hours; for Emax: read-out: Maximum inhibition
In short: as §1

Chain of estrogen receptor ERα Y537S mutant-type (P03372 296-554 Y537S): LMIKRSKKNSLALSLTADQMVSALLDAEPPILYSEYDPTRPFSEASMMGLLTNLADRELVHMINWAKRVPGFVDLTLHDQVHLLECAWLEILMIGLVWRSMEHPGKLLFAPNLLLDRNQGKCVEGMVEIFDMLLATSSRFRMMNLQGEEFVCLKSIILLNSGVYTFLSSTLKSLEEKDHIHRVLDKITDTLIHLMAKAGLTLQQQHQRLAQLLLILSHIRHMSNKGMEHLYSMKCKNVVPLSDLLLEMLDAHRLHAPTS

Compound | IC50 [1] | Emax [1] | IC50 [2] | Emax [2] | Covalent modification effect on the estrogen receptor ERα Y537S mutant-type [3] | IC50 [4] | Emax [4]
O=C(/C=C/CNC1(COc2ccc(/C(=C(/CC(F)(F)F)c3ccccc3)c3ccc4[nH]nc(F)c4c3)cn2)CC1)N1CCOCC1 [Example 1, (E)-1-Morpholino-4-((1-(((5-((Z)-4,4,4-trifluoro-1-(3-fluoro-1H-indazol-5-yl)-2-phenylbut-1-en-1-yl)pyridin-2-yl)oxy)methyl)cyclopropyl)amino)but-2-en-1-one] | 0.5 nM | 100% | 3 nM | 100% | 97% | 2 nM | 100%
CN(C)C(=O)/C=C/CN1CCC[C@@H](Oc2ccc(/C(=C(/CC(F)(F)F)c3ccccc3)c3ccc4[nH]nc(F)c4c3)cn2)C1 [Example 14, (E)-N,N-Dimethyl-4-((R)-3-((5-((Z)-4,4,4-trifluoro-1-(3-fluoro-1H-indazol-5-yl)-2-phenylbut-1-en-1-yl)pyridin-2-yl)oxy)piperidin-1-yl)but-2-enamide] | 0.8 nM | 108% | 6 nM | 97% | 94% | 3 nM | 107%
O=C(/C=C/CN1CCC[C@@H](Oc2ccc(/C(=C(/CC(F)(F)F)c3ccccc3)c3ccc4[nH]nc(F)c4c3)cn2)C1)N1CCCC1 [Example 15, (E)-1-(Pyrrolidin-1-yl)-4-((R)-3-((5-((Z)-4,4,4-trifluoro-1-(3-fluoro-1H-indazol-5-yl)-2-phenylbut-1-en-1-yl)pyridin-2-yl)oxy)piperidin-1-yl)but-2-en-1-one] | 0.2 nM | 107% | 2 nM | 102% | 96% | 1 nM | 105%
CN(C)C(=O)/C=C/CNC1(COc2ccc(/C(=C(/CC(F)(F)F)c3ccccc3)c3ccc4[nH]nc(F)c4c3)cn2)CC1 [Example 39, (E)-N,N-Dimethyl-4-((1-(((5-((Z)-4,4,4-trifluoro-1-(3-fluoro-1H-indazol-5-yl)-2-phenylbut-1-en-1-yl)pyridin-2-yl)oxy)methyl)cyclopropyl)amino)but-2-enamide] | 0.2 nM | 113% | 1 nM | 112% | 98% | 0.6 nM | 105%
O=C(/C=C/CNC1(COc2ccc(/C(=C(/CC(F)(F)F)c3ccccc3)c3ccc4[nH]nc(F)c4c3)cn2)CC1)N1CC(O)C1 [Example 40, (E)-1-(3-Hydroxyazetidin-1-yl)-4-((1-(((5-((Z)-4,4,4-trifluoro-1-(3-fluoro-1H-indazol-5-yl)-2-phenylbut-1-en-1-yl)pyridin-2-yl)oxy)methyl)cyclopropyl)amino)but-2-en-1-one] | 0.1 nM | 115% | 0.5 nM | 112% | 98% | 0.2 nM | 106%
O=C(/C=C/CNC1(COc2ccc(/C(=C(/CC(F)(F)F)c3ccccc3)c3ccc4[nH]nc(F)c4c3)cn2)CC1)N1CC[C@H](O)C1 [Example 41, (E)-1-((S)-3-Hydroxypyrrolidin-1-yl)-4-((1-(((5-((Z)-4,4,4-trifluoro-1-(3-fluoro-1H-indazol-5-yl)-2-phenylbut-1-en-1-yl)pyridin-2-yl)oxy)methyl)cyclopropyl)amino)but-2-en-1-one] | 0.1 nM | 115% | 0.6 nM | 111% | 95% | 0.2 nM | 106%
O=C(/C=C/CNC1(COc2ccc(/C(=C(/CC(F)(F)F)c3ccccc3)c3ccc4[nH]nc(F)c4c3)cn2)CC1)N1CCO[C@@H](CO)C1 [Example 42, (E)-1-((R)-2-(Hydroxymethyl)morpholino)-4-((1-(((5-((Z)-4,4,4-trifluoro-1-(3-fluoro-1H-indazol-5-yl)-2-phenylbut-1-en-1-yl)pyridin-2-yl)oxy)methyl)cyclopropyl)amino)but-2-en-1-one] | 0.03 nM | 105% | 0.2 nM | 107% | 97% | 0.1 nM | 105%
